Earlier results as cited in patent publication US8945630B2, “Method of producing and applications of composition of hypochlorous acid” (Aquilabs S.A., priority 2008, dated 2015).

Conditions: at 25° C.

In the case of `OCl` [Hypochlorous acid], the dissociation constant is listed as 2.9×10^−8.
